Reference: PubChem BioAssay AID2060887 (Molecular Pharmacology Branch, DTP, NCI, 2025)

Tested on: 782815-120-R-J1-PDC complex spheroid viability
Experiment: Anticancer human tumor 782815-120-R-J1-PDC patient-derived colon adenocarcinoma cell line growth inhibition [RAS]
Settings: for IC50: curve of first compound; for viability, T/C: stronger effect = lower value
Summary of the method: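 Multi-cell-type spheroids: tumor cells plus HUVEC endothelial cells and mesenchymal stem cells. RAS-pathway inhibitors were combined with targeted agents, each dosed in half-log steps down from clinical Cmax, or from 10 microM when Cmax was unknown.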
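Note: spheroids exposed to compounds for 7 days before reading.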
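Throughout, for viability, T/C: 100% = DMSO vehicle control viability.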

In the case of `CCN1CCN(Cc2ccc(Nc3ncc(F)c(-c4cc(F)c5nc(C)n(C(C)C)c5c4)n3)nc2)CC1` + CCn1c(-c2cc(N3CCN(C)CC3)cnc2C(C)OC)c2c3cc(ccc31)-c1csc(n1)CC(NC(=O)C1CC1C)C(=O)N1CCCC(N1)C(=O)OCC(C)(C)C2, the IC50 (second compound 0.000949 µM) is reported as over 1000 nM, the IC50 (second compound 0.003 µM) is reported as over 1000 nM and the IC50 (second compound 0.00949 µM) is reported as under 3.16 nM. For the same compound, the IC50 (second compound 0.03 µM) was under 3.16 nM, the IC50 (second compound 0.0949 µM) was under 3.16 nM and the IC50 (second compound 0.3 µM) was under 3.16 nM. It also gave a viability, T/C (second compound 0.000949 µM, first compound 0.00316 µM) of 75.8%, a viability, T/C (second compound 0.000949 µM, first compound 0.01 µM) of 88% and a viability, T/C (second compound 0.000949 µM, first compound 0.0316 µM) of 92.3%. The viability, T/C (second compound 0.000949 µM, first compound 0.1 µM) was 84.9%, the viability, T/C (second compound 0.000949 µM, first compound 0.316 µM) was 94.6% and the viability, T/C (second compound 0.000949 µM, first compound 1 µM) was 114%. For the same compound, the viability, T/C (second compound 0.003 µM, first compound 0.00316 µM) was 58.6%, the viability, T/C (second compound 0.003 µM, first compound 0.01 µM) was 59.5% and the viability, T/C (second compound 0.003 µM, first compound 0.0316 µM) was 57.9%. For the same compound, the viability, T/C (second compound 0.003 µM, first compound 0.1 µM) was 59.7%, the viability, T/C (second compound 0.003 µM, first compound 0.316 µM) was 62.6% and the viability, T/C (second compound 0.003 µM, first compound 1 µM) was 64%. The viability, T/C (second compound 0.00949 µM, first compound 0.00316 µM) was 34.3%, the viability, T/C (second compound 0.00949 µM, first compound 0.01 µM) was 36.4% and the viability, T/C (second compound 0.00949 µM, first compound 0.0316 µM) was 34.4%. The viability, T/C (second compound 0.00949 µM, first compound 0.1 µM) was 39.4%, the viability, T/C (second compound 0.00949 µM, first compound 0.316 µM) was 34.8% and the viability, T/C (second compound 0.00949 µM, first compound 1 µM) was 32.5%. For the same compound, the viability, T/C (second compound 0.03 µM, first compound 0.00316 µM) was 20.2%, the viability, T/C (second compound 0.03 µM, first compound 0.01 µM) was 21.9% and the viability, T/C (second compound 0.03 µM, first compound 0.0316 µM) was 18.5%. It also gave a viability, T/C (second compound 0.03 µM, first compound 0.1 µM) of 18%, a viability, T/C (second compound 0.03 µM, first compound 0.316 µM) of 20.3% and a viability, T/C (second compound 0.03 µM, first compound 1 µM) of 20.8%. The viability, T/C (second compound 0.0949 µM, first compound 0.00316 µM) was 15.2%, the viability, T/C (second compound 0.0949 µM, first compound 0.01 µM) was 15.7% and the viability, T/C (second compound 0.0949 µM, first compound 0.0316 µM) was 14.5%. The viability, T/C (second compound 0.0949 µM, first compound 0.1 µM) was 17%, the viability, T/C (second compound 0.0949 µM, first compound 0.316 µM) was 19.3% and the viability, T/C (second compound 0.0949 µM, first compound 1 µM) was 17.1%. It also gave a viability, T/C (second compound 0.3 µM, first compound 0.00316 µM) of 15.6%, a viability, T/C (second compound 0.3 µM, first compound 0.01 µM) of 14.8% and a viability, T/C (second compound 0.3 µM, first compound 0.0316 µM) of 13.6%. The viability, T/C (second compound 0.3 µM, first compound 0.1 µM) was 13.3%, the viability, T/C (second compound 0.3 µM, first compound 0.316 µM) was 13.2% and the viability, T/C (second compound 0.3 µM, first compound 1 µM) was 18.2%.
